{"source": "patent US20260325500A1", "about": "“METHODS AND COMPOSITIONS FOR TREATING ACUTE STRESS DISORDER” (BioXcel Therapeutics, Inc., priority 2022, published 2026)", "key": {"[1]": {"system": "CCK-4 induced panic anxiety in rats", "assay": "Elevated plus maze, CCK-4 induced panic anxiety (Example 8)", "type": "in vivo, Wistar rats", "conditions": "for Entries, % increase as compared to CCK-4/Vehicle / Entries, Mean ± SEM / Time, % increase as compared to CCK-4/Vehicle / Time, Mean ± SEM: CCK4 0.2 mg/kg i.p.", "text": "Rationale: In the past two decades panic induction with cholecystokinin-tetrapeptide (CCK-4) as an experimental model of human anxiety has become a focus of intensive research. CCK-4 is a synthetic analog of the endogenous neuropeptide cholecystokinin (CCK), which has been found in different brain regions. Particularly, high concentrations of CCK have been detected in regions that have been implicated in the mediation of panic attacks such as the cerebral cortex, amygdala, hippocampus, and brainstem nuclei. CCK-4 dose dependently induces panic attacks in healthy controls. Thus, CCK-4 has been postulated to fulfil the criteria for an ideal and valid panicogenic agent. […] Therefore, the CCK-4 challenge paradigm can serve as a useful tool to evaluate the anti-panic potential of novel anxiolytic compounds.\nAnimal groups: Male Wistar Rats were purchased at a body weight of 150 g and reached a body weight of about 220 g at the time of use. Animals were distributed in 6 different experimental groups with 12 […] per group as illustrated in Table 11. Each experimental group was also coded so that the experimenter became unaware of the true experimental group at the time EPM trial.\nStudy drugs: All compounds/drugs were prepared in saline (0.9% NaCl).\nCCK-4 was prepared at a solution of 0.2 mg/ml which when injected i.p. at a dosage volume of 1 ml/kg results in a dose of 0.2 mg/kg.\nDiazepam was prepared at a solution of 1 mg/ml which when injected i.p. at a dosage volume of 1 ml/kg results in a dose of 1 mg/kg.\nLatrepirdine was prepared at concentrations of 2.5, 7.5, 25 and 37.5 mg/ml which when injected i.m. at a volume of 100 μL for a rat of 250 g results in doses of 1, 3, 10 and 15 mg/kg respectively.\nStudy design and dosing: The rats were randomly assigned to one of the different experimental groups. Each animal was identified by its group name, cage number, series (day) of experiment, and a number (from 1 to 4) written with permanent ink on its tail. They were handled by an experimenter for about 3 min each day during 1 week prior to the day of EPM trial.\nThe apparatus is a PVC maze covered with Plexiglas and subdivided into four equal exploratory arms (40×10 cm), which are all interconnected by a small platform (10×10 cm). The apparatus is placed 65 cm above the floor. Two arms are opened, and two others are closed with wall (high: 10 cm).\nAfter compound administration, rat is placed on the platform opposite a closed arm. The number of entries and the time spent in each arm are recorded during a 5 min period. The animal is considered as entered in an arm when it places its four paws in the arm.\nStatistical analysis: Data was analyzed using One-Way ANOVA followed by multiple comparison with Dunnett's post-hoc test. All statistical analyses were performed using GraphPad Prism software package (Version 9) and p value below 0.05 was considered as significant."}, "[2]": {"system": "aggressive behavior of male Swiss albino mice", "assay": "Resident intruder task, aggressive behavior (Example 5)", "type": "in vivo", "conditions": "for agitation/aggression in resident mice: mouse, in vivo", "text": "Animal groups: Swiss albino male mice were distributed in 13 different experimental groups with 6-14 mice per group as illustrated in Table 9. Each experimental group was also coded so that the experimenter became unaware of the true experimental group during RI assay.\nRationale: The resident-intruder stress is an ethologically relevant model to examine mechanisms underlying stress-related psychiatric disorders. In male rats, a single resident-intruder exposure activates LC neurons. Considered as a major stress response system, LC-NE activation is critical in maintaining arousal in response to acute stress.\nStudy drugs: The test substances (Dexmedetomidine hydrochloride, latrepirdine dihydrochloride hydrate and sodium valproate) were dissolved in 0.9% normal saline which served as the vehicle. β-Estradiol was dissolved in 0.9% normal saline.\nStudy design and dosing: Bilateral ovariectomy surgery was carried out in 3-4 weeks old female Swiss albino mice as per the standard methods (Alagwu and Nneli, 2005). Animals were anesthetized using Avertin (2,2,2-Tribromoethanol) at 250 mg/kg, i.p. and were laid down on the surgery table and fixed with adhesive plaster. A midline incision was made on the dorsal region below the rib and 1 cm lateral to the either side of midline, a small incision was made on fascia to isolate the adipose fat supporting the ovaries. By slowly pulling out the fat tissue, the ovary was identified and excised the following uterine horn ligation with silk sutures. Fascia was covered with sutures and similar procedure was repeated on the other side as well. Superficial skin layers were sutured and gentamicin (80 mg/kg, s.c.) was given as antibiotic and meloxicam (4 mg/kg, s.c.) as analgesic, then povidone iodine was applied on superficial skin layers. Polyethylene glycol (PEG) was applied to prevent drying of eye balls and kept for recovery period of 3 weeks (surgery was carried by a single experimenter). Male Swiss albino mice (25-40 grams, Resident animals) was housed individually i.e., 1 animal/cage with an ovariectomized female Swiss albino mice for a period of three weeks (Isolated habituation). During this habituation period, female mice were treated with β-Estradiol at a dose of 0.2 mg/kg, s.c. Male Swiss albino mice (10-20 grams, Intruder animals) were housed 5 animals/cage for a period of five days (Social habituation). On the day of exposure, animals were brought into the experimental room 60 minutes before starting the experiment, to habituate them to the experimental conditions. […]\nStatistical analysis: Data obtained was compared with basal scoring by using Student's paired two tailed t-test. Duration of attack, and latency of attack between the groups was analyzed using One-Way ANOVA followed by Bonferroni's posthoc test. […]"}, "[3]": {"conditions": "1-15 mg/kg i.m., CCK-4 treated rats"}}, "note": "Counter-ions that a name gives are not always drawn. Marks after values point to notes of the source that are not given here.", "data": [{"smiles": "Cc1ccc2c(c1)c1c(n2CCc2ccc(C)nc2)CCN(C)C1", "note": "[latrepirdine dihydrochloride hydrate]", "values": [{"measurement": "Entries, % increase as compared to CCK-4/Vehicle", "setting": "[1]; 1 mg/kg i.m.", "value": "(47.37) %"}, {"measurement": "Entries, Mean ± SEM", "setting": "[1]; 1 mg/kg i.m.", "value": "2.8 ± 0.4", "unit": "n"}, {"measurement": "Time, % increase as compared to CCK-4/Vehicle", "setting": "[1]; 1 mg/kg i.m.", "value": "(83.33) %"}, {"measurement": "Time, Mean ± SEM", "setting": "[1]; 1 mg/kg i.m.", "value": "24.2 ± 4.7", "unit": "s"}, {"measurement": "Entries, % increase as compared to CCK-4/Vehicle", "setting": "[1]; 3 mg/kg i.m.", "value": "(31.58) %"}, {"measurement": "Entries, Mean ± SEM", "setting": "[1]; 3 mg/kg i.m.", "value": "2.5 ± 0.2", "unit": "n"}, {"measurement": "Time, % increase as compared to CCK-4/Vehicle", "setting": "[1]; 3 mg/kg i.m.", "value": "(98.48) %"}, {"measurement": "Time, Mean ± SEM", "setting": "[1]; 3 mg/kg i.m.", "value": "26.2 ± 3.3", "unit": "s"}, {"measurement": "Entries, % increase as compared to CCK-4/Vehicle", "setting": "[1]; 10 mg/kg i.m.", "value": "(73.68) * %"}, {"measurement": "Entries, Mean ± SEM", "setting": "[1]; 10 mg/kg i.m.", "value": "3.3 ± 0.3", "unit": "n"}, {"measurement": "Time, % increase as compared to CCK-4/Vehicle", "setting": "[1]; 10 mg/kg i.m.", "value": "(158.33) ** %"}, {"measurement": "Time, Mean ± SEM", "setting": "[1]; 10 mg/kg i.m.", "value": "34.1 ± 3.4", "unit": "s"}, {"measurement": "Entries, % increase as compared to CCK-4/Vehicle", "setting": "[1]; 15 mg/kg i.m.", "value": "(126.32) *** %"}, {"measurement": "Entries, Mean ± SEM", "setting": "[1]; 15 mg/kg i.m.", "value": "4.3 ± 0.4", "unit": "n"}, {"measurement": "Time, % increase as compared to CCK-4/Vehicle", "setting": "[1]; 15 mg/kg i.m.", "value": "(266.67) **** %"}, {"measurement": "Time, Mean ± SEM", "setting": "[1]; 15 mg/kg i.m.", "value": "48.4 ± 5.3", "unit": "s"}, {"measurement": "duration of attack", "setting": "[2]; 1 mg/kg, 3 mg/kg and 10 mg/kg, i.p.", "value": "significantly decreased"}, {"measurement": "agitation/aggression in resident mice", "setting": "[2]", "value": "decreased agitation/aggression"}]}, {"smiles": "Cc1ccc2c(c1)c1c(n2CCc2ccc(C)nc2)CCN(C)C1", "note": "[latrepirdine, 2,8-dimethyl-5-[2-(6-methylpyridin-3-yl)ethyl]-3,4-dihydro-1H-pyrido[4,3-b]indole]", "values": [{"measurement": "dose with the greatest effect on entries and time in open arms", "setting": "[1]; [3]", "value": 15, "unit": "mg/kg"}, {"measurement": "number of entries to and time spent in the open arms, significance", "setting": "[1]; [3]", "value": "significant at the doses of 10 and 15 mg/kg"}, {"measurement": "mean duration of attack", "setting": "[2]; latrepirdine 10 mg/kg, i.p.", "value": 36.87, "unit": "s"}, {"measurement": "agitation/aggression in resident mice", "setting": "[2]", "value": "significantly decreased agitation/aggression in resident mice"}]}]}
